Reference: US20230212170A1, “INHIBITORS OF KRAS G12C PROTEIN AND USES THEREOF” (SHANGHAI ANTENGENE CORPORATION LIMITED, priority 2020, published 2023)

target: KRAS G12C (Homo sapiens, UniProt P01116, G12C); experiment: KRAS G12C nucleotide exchange assay (SOS1-mediated, mant-GDP fluorescence); assay type: biochemical; parameters: KRas(1-169) G12C protein; conditions: 15 min pre-incubation
Procedure: Assay 1: KRAS G12C Nucleotide Exchange Assay
1×Loading buffer: 20 mM HEPES, pH 7.5, 50 mM NaCl, 0.5 mM MgCl2, 1 mM DTT, 5 mM EDTA
1×Equilibration buffer: 20 mM HEPES, pH 7.5, 150 mM NaCl, 1 mM MgCl2, 1 mM DTT
1×Assay buffer: 20 mM HEPES, pH 7.5, 150 mM NaCl, 1 mM MgCl2, 0.01% Tween-20, 1 mM DTT
2. Load Mant GDP to KRAS G12C:
a. A mixed solution of 100 µL mant GDP and KRAS G12C was prepared with 1×loading buffer: 60 um KRAS G12C, 600 um […], incubated at room temperature for 60 minutes, and the reaction was carried out in dark conditions.
b. Add 1 uL 1 m MgCl2 (final concentration 10 mm) to stop the reaction, mix the solution upside down in the centrifuge tube, centrifugate for 3-5 seconds, and incubate at room temperature for 30 minutes.
c. At the same time of incubation for 30 minutes, balance nap-5 column with 10 ml ix equipment buffer until no liquid drops.
d. Drop the mixed solution of 100 uL mant GDP and KRAS G12C into the center of nap-5 column. After the sample completely enters nap-5 column, add 400 µL 1× equipment buffer until no liquid drops.
e. Add 500 ul 1× equipment buffer for elution and collect eluant.
f. Determination of KRAS G12C mant GDP with Bradford protein quantitative Kit.
3. Nucleotide Exchange Experiment:
a. Transfer 50 NL DMSO/compound to 384 well plate with echo550.
b. 10 uL enzyme mix was added into 384 pore plate and incubated with DMSO/compound for 15 min.
c. Initial reaction with 10 µL Sos1/GTP mix.
d. Immediately after reaction, read ex360/em440 fluorescence value in kinetic mode with Nivo.
a. Use Graphpad software to process data and draw pictures.
b. K value is obtained in Graphpad software by fitting One phase experimental deck model.
c. Z′=1-3*(SdKmax+SdKmin)/(AveKmax−AveKmin)
d. In % is calculated by the following formula:
Inh%=(Kmax−Ksample)/(Kmax−Kmin)*100

KRAS G12C, sequence (P01116 1-169 isoform P01116-2 G12C): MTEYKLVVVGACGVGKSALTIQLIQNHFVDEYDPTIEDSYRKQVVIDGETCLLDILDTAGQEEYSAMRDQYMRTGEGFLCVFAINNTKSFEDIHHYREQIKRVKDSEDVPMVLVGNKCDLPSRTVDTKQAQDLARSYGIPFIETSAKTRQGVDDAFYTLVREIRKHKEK

Structure (SMILES)	IC50 [µM]
C=CC(=O)N1CCN(c2nc(OC[C@@H]3CCCN3C)nc3c(=O)n(-c4cccc5cccc(Cl)c45)c(C)nc23)CC1 [Compound 3, (S)-8-(4-acryloylpiperazin-1-yl)-3-(8-chloronaphthalen-1-yl)-2-methyl-6-((1-methylpyrrolidin-2-yl)methoxy)pyrimido[5,4-d]pyrimidin-4(3H)-one]	8.24
C=CC(=O)N1CCN(c2nc(OC[C@@H]3CCCN3C)nc3c(=O)n(-c4cccc5ccccc45)cnc23)CC1 [Compound 5, (S)-8-(4-acryloylpiperazin-1-yl)-6-((1-methylpyrrolidin-2-yl)methoxy)-3-(naphthalen-1-yl)pyrimido[5,4-d]pyrimidin-4(3H)-one]	52.3
C=CC(=O)N1CCN(c2nc(OC[C@@H]3CCCN3C)nc3c(=O)n(-c4cccc5cccc(C)c45)c(C)nc23)CC1 [Compound 6, (S)-8-(4-acryloylpiperazin-1-yl)-2-methyl-3-(8-methylnaphthalen-1-yl)-6-((1-methylpyrrolidin-2-yl)methoxy)pyrimido[5,4-d]pyrimidin-4(3H)-one]	1.78
C=CC(=O)N1CCN(c2nc(OC[C@@H]3CCCN3C)nc3c(=O)n(-c4cccc5cccc(C)c45)c(C)nc23)C[C@@H]1CC#N [Compound 7, 2-((S)-1-acryloyl-4-(6-methyl-7-(8-methylnaphthalen-1-yl)-2-(((S)-1-methylpyrrolidin-2-yl)methoxy)-8-oxo-7,8-dihydropyrimido[5,4-d]pyrimidin-4-yl)piperazin-2-yl)acetonitrile]	0.39
C=CC(=O)N1C[C@H](C)N(c2nc(OC[C@@H]3CCCN3C)nc3c(=O)n(-c4cccc5cccc(Cl)c45)c(C)nc23)C[C@@H]1C [Compound 8, 8-((2S,5S)-4-acryloyl-2,5-dimethylpiperazin-1-yl)-3-(8-chloronaphthalen-1-yl)-2-methyl-6-(((S)-1-methylpyrrolidin-2-yl)methoxy)pyrimido[5,4-d]pyrimidin-4(3H)-one]	60.7
C=CC(=O)N1CCN(c2nc(OC[C@@H]3CCCN3C)nc3c(=O)n(-c4cccc5cccc(CC)c45)c(C)nc23)C[C@@H]1CC#N [Compound 9, 2-((S)-1-acryloyl-4-(7-(8-ethylnaphthalen-1-yl)-6-methyl-2-(((S)-1-methylpyrrolidin-2-yl)methoxy)-8-oxo-7,8-dihydropyrimido[5,4-d]pyrimidin-4-yl)piperazin-2-yl)acetonitrile]	1.07
C=CC(=O)N1CCN(c2nc(OC[C@@H]3CCCN3C)nc3c(=O)n(-c4cccc5cccc(C6CC6)c45)c(C)nc23)C[C@@H]1CC#N [Compound 10, 2-((S)-1-acryloyl-4-(7-(8-cyclopropylnaphthalen-1-yl)-6-methyl-2-(((S)-1-methylpyrrolidin-2-yl)methoxy)-8-oxo-7,8-dihydropyrimido [5,4-d]pyrimidin-4-yl)piperazin-2-yl)acetonitrile]	0.84
C=CC(=O)N1CCN(c2nc(OC[C@@H]3CCCN3C)nc3c(=O)n(-c4cccc5cccc(C(=C)C)c45)c(C)nc23)C[C@@H]1CC#N [Compound 11, 2-((S)-1-acryloyl-4-(6-methyl-2-(((S)-1-methylpyrrolidin-2-yl)methoxy)-8-oxo-7-(8-(prop-1-en-2-yl)naphthalen-1-yl)-7,8-dihydropyrimido[5,4-d]pyrimidin-4-yl)piperazin-2-yl)acetonitrile]	2.94
C=CC(=O)N1CCN(c2nc(OC[C@@H]3CCCN3C)nc3c(=O)n(-c4cc(OC)cc5ccccc45)c(C)nc23)C[C@@H]1CC#N [Compound 12, 2-((S)-1-acryloyl-4-(7-(3-methoxynaphthalen-1-yl)-6-methyl-2-(((S)-1-methylpyrrolidin-2-yl)methoxy)-8-oxo-7,8-dihydropyrimido[5,4-d]pyrimidin-4-yl)piperazin-2-yl)acetonitrile]	0.9
